Source: patent US11572337B2, “Antibacterial agents: arylalkylcarboxamido phloroglucinols” (Rutgers, The State University of New Jersey, priority 2018, dated 2023)
pIC50: −log10 of the molar value. ≈ marks a conversion by molar mass, not a printed value.

Columns and labels:
[1] = molecular target: E. coli RNA polymerase σ70 holoenzyme (Escherichia coli (strain K12), UniProt P0A8T7+P0A8V2); experiment: Fluorescence-detected assay of inhibition of Escherichia coli RNA polymerase; format: biochemical; details: T4 N25 promoter DNA, RiboGreen fluorescence, read-out: RNAP-inhibitory activity E. coli RNAP IC50
Experimental: (§1) Fluorescence-detected RNA polymerase assays with E. coli RNA polymerase were performed by a modification of the procedure of Kuhlman et al., 2004 [Kuhlman, P., Duff, H. & Galant, A. (2004) A fluorescence-based assay for multisubunit DNA-dependent RNA polymerases. Anal. Biochem. 324, 183-190]. Reaction mixtures contained […]: […] test salt, 75 nM E. coli RNA polymerase σ^70 holoenzyme, 20 nM 384 bp DNA fragment containing the bacteriophage T4 N25 promoter, 100 μM ATP, 100 μM GTP, 100 μM UTP, 100 μM CTP, 50 mM Tris-HCl, pH 8.0, 100 mM KCl, 10 mM MgCl2, 1 mM DTT, 10 μg/ml bovine serum albumin, and 5.5% glycerol. Reaction components other than DNA and NTPs were pre-incubated for 10 min at 37° C. Reactions were carried out by addition of DNA and incubation for 5 min at 37° C., followed by addition of NTPs and incubation for 60 min at 37° C. DNA was removed by addition of 1 μl 5 mM CaCl2 and 2 U DNaseI (Ambion, Inc.), followed by incubation for 90 min at 37° C. RNA was quantified by addition of 100 μI RiboGreen RNA Quantitation Reagent (Invitrogen, Inc.; 1:500 dilution in Tris-HCl, pH 8.0, 1 mM EDTA), followed by incubation for 10 min at 25° C., followed by measurement of fluorescence intensity [excitation wavelength=485 nm and emission wavelength=535 nm; QuantaMaster QM1 spectrofluorometer (PTI, Inc.)]. IC50 is defined as the concentration of inhibitor resulting in 50% inhibition of RNA polymerase activity.

[2] = system: methicillin-resistant Staphylococcus aureus (MRSA) strain BAA-1707 (USA-400, MW2); experiment: Antibacterial efficacy in mouse model of Staphylococcus aureus systemic infection (peritonitis model); details: female Swiss Webster mice, intravenous injection 0 h post-infection, dose resulting in 50% survival at 72 h (probit), read-out: in vivo antibacterial activity mouse MRSA peritonitis ED50
Experimental: Female Swiss Webster mice ([…]) were experimentally infected by intraperitoneal administration of 1×10^7 colony forming units of methicillin-resistant Staphylococcus aureus (MRSA) strain BAA-1707 (USA-400, MW2) in 5% hog gastric mucin. Test compounds in vehicle (5% dimethylacetamide and 4% cremophor EL in 10 mM sodium phosphate, pH 8), positive control (linezolid in vehicle), and negative control (vehicle only), were administered by intravenous injection into a tail vein (200 μl) 0 h post-infection. Identities of test compounds and controls were blinded from personnel performing injections and monitoring survival. The protective dose 50 (PD50) was defined as the test-compound dose resulting in 50% survival at 72 h (calculated using the probit method).

[3] = system: Staphylococcus aureus ATCC 12600; experiment: Inhibition of growth of Staphylococcus aureus (spiral gradient endpoint MIC assay); format: cell-based; details: ATCC12600, Mueller-Hinton II cation-adjusted agar, 16 h at 37° C., read-out: in vitro antibacterial activity S. aureus ATCC12600 MIC
From the text: Minimum inhibitory concentrations (MICs for Staphylococcus aureus ATCC 12600 were quantified using spiral gradient endpoint assays, essentially as described [Wallace, A. and Corkill, J. (1989) Application of the spiral plating method to study antimicrobial action. J. Microbiol. Meths. 10, 303-310; Paton, J., Holt, A., and Bywater, M. (1990) Measurement of MICs of antibacterial agents by spiral gradient endpoint compared with conventional dilution methods. Int. I Exp. Clin. Chemother. 3, 31-38; Schalkowsky S. (1994) Measures of susceptibility from a spiral gradient of drug concentrations. Adv. Exp. Med. Biol. 349, 107-120]. Assays employed exponential-gradient plates containing 150 mm×4 mm Mueller-Hinton II cation-adjusted agar and 0.4-100 μg/ml of test salt. Plates were prepared using an Autoplate 4000 spiral plater (Spiral Biotech, Inc.). Saturated overnight cultures were swabbed radially onto plates, and plates were incubated for 16 h at 37° C. For each culture, the streak length was measured using a clear plastic template (Spiral Biotech, Inc.), the test-salt concentration at the streak endpoint was calculated using the program SGE (Spiral Biotech, Inc.), and the MIC was defined as the calculated test-salt concentration at the streak endpoint.

[4] = molecular target: S. aureus RNA polymerase core enzyme + S. aureus σA (Staphylococcus aureus (strain NCTC 8325 / PS 47), UniProt P47768+Q2G0N5); experiment: Fluorescence-detected assay of inhibition of Staphylococcus aureus RNA polymerase; format: biochemical; details: T4 N25 promoter DNA, RiboGreen fluorescence, read-out: RNAP-inhibitory activity S. aureus RNAP IC50
Experimental: as §1
Fluorescence-detected RNA polymerase assays with S. aureus RNA polymerase were performed as in Example 2.1, using reaction mixtures containing (20 μl): 0-100 nM test salt, 75 nM S. aureus RNA polymerase core enzyme, 300 nM S. aureus σ^A, 20 nM 384 bp DNA fragment containing the bacteriophage T4 N25 promoter, 100 μM ATP, 100 μM GTP, 100 μM UTP, 100 μM CTP, 40 mM Tris-HCl, pH 8.0, 80 mM NaCl, 5 mM MgCl2, 2.5 mM DTT, and 12.7% glycerol. IC50 is defined as the concentration of inhibitor resulting in 50% inhibition of RNA polymerase activity.

SMILES | pIC50 [1] | ED50 [2] | MIC [3] | pIC50 [4]
O=C(NCCc1ccc(Oc2ccccc2)cc1)c1c(O)cc(O)cc1O [Compound 0MTK148, 2,4,6-trihydroxy-N-(4-phenoxyphenethyl)benzamide] | 6.10 | 2.5 mg/kg | 19 mg/L (≈ 52 µM) | 5.41
O=C(NCCc1ccc(C(F)(F)F)cc1C(F)(F)F)c1c(O)cc(O)cc1O [Compound 0MTK208, N-(2,4-bis(trifluoromethyl)phenethyl)-2,4,6-trihydroxybenzamide] | 5.14 |  | 11 mg/L (≈ 26.9 µM) | 5.30
O=C(NCCc1ccc(Cl)cc1)c1c(O)c(Cl)c(O)c(Cl)c1O [Compound 0MTK221, 3,5-dichloro-N-(4-chlorophenethyl)-2,4,6-trihydroxybenzamide] | 4.85 |  | > 40 mg/L | 4.01
O=C(NCCc1ccc(Cl)cc1)c1c(O)cc(O)c(Cl)c1O [Compound 0MTK222, 3-chloro-N-(4-chlorophenethyl)-2,4,6-trihydroxybenzamide] | 5.17 |  | > 40 mg/L | 5.05
O=C(NCCc1ccc(C(F)(F)F)cc1)c1c(O)cc(O)c(Cl)c1O [Compound 0MTK223, 3-chloro-2,4,6-trihydroxy-N-(4-(trifluoromethyl)phenethyl)benzamide] | 5.18 |  | > 40 mg/L | 5.00
O=C(NCCc1ccc(C(F)(F)F)cc1)c1c(O)c(Cl)c(O)c(Cl)c1O [Compound 0MTK224, 3,5-dichloro-2,4,6-trihydroxy-N-(4-(trifluoromethyl)phenethyl)benzamide] | 4.60 |  | > 40 mg/L | < 4.00
O=C(NCCc1ccc(Oc2ccccc2)cc1)c1c(O)c(Cl)c(O)c(Cl)c1O [Compound 0MTK230, 3,5-dichloro-2,4,6-trihydroxy-N-(4-phenoxyphenethyl)benzamide] | 5.11 |  | > 40 mg/L | 4.46
O=C(NCCc1ccc(Oc2ccc(F)cc2)cc1)c1c(O)c(Cl)c(O)c(Cl)c1O [Compound 0MTK231, 3,5-dichloro-N-(4-(4-fluorophenoxy)phenethyl)-2,4,6-trihydroxybenzamide] | 5.08 |  | 33 mg/L (≈ 73 µM) | 4.51
O=C(NCCc1ccc(Oc2ccc(Cl)cc2)cc1)c1c(O)cc(O)c(Cl)c1O [Compound 0MTK232, 3-chloro-N-(4-(4-chlorophenoxy)phenethyl)-2,4,6-trihydroxybenzamide] | 6.14 |  | 20 mg/L (≈ 46.1 µM) | 5.10
O=C(NCCc1ccc(Oc2ccc(Cl)cc2)cc1)c1c(O)c(Cl)c(O)c(Cl)c1O [Compound 0MTK233, 3,5-dichloro-N-(4-(4-chlorophenoxy)phenethyl)-2,4,6-trihydroxybenzamide] | 5.35 |  | 6.8 mg/L (≈ 14.5 µM) | 4.64
O=C(NCCc1ccc(Oc2cc(Cl)cc(Cl)c2)cc1)c1c(O)cc(O)c(Cl)c1O [Compound 0MTK237, 3-chloro-N-(4-(3,5-dichlorophenoxy)phenethyl)-2,4,6-trihydroxybenzamide] | 6.51 |  | 15 mg/L (≈ 32 µM) | 5.52
O=C(NCCc1ccc(Oc2cc(Cl)cc(Cl)c2)cc1)c1c(O)c(Cl)c(O)c(Cl)c1O [Compound 0MTK238, 3,5-dichloro-N-(4-(3,5-dichlorophenoxy)phenethyl)-2,4,6-trihydroxybenzamide] | 6.11 |  | 3.2 mg/L (≈ 6.36 µM) | 5.52
O=C(NCCc1ccc(Oc2ccc(F)cc2)cc1)c1c(O)cc(O)c(Cl)c1O [Compound 0MTK240, 3-chloro-N-(4-(4-fluorophenoxy)phenethyl)-2,4,6-trihydroxybenzamide] | 5.68 |  | > 40 mg/L | 4.82
O=C(NCCc1ccc(Oc2cccc(Cl)c2)cc1)c1c(O)cc(O)cc1O [Compound 0MTK256, N-(4-(3-chlorophenoxy)phenethyl)-2,4,6-trihydroxybenzamide] | 6.19 |  | 9.1 mg/L (≈ 22.8 µM) | 5.00
Cc1ccc(Oc2ccc(CCNC(=O)c3c(O)cc(O)cc3O)cc2)cc1 [Compound 0MTK257, 2,4,6-trihydroxy-N-(4-(p-tolyloxy)phenethyl)benzamide] | 6.10 |  | 20 mg/L (≈ 52.7 µM) | 4.96
CCC1=C(O)C(CC)(CC)C(=O)C(C(=O)NCCc2ccc(Oc3ccc(F)cc3)cc2)=C1O [Compound 3RKHTK161, 3,5,5-triethyl-N-(4-(4-fluorophenoxy)phenethyl)-2,4-dihydroxy-6-oxocyclohexa-1,3-dienecarboxamide] | 5.48 |  | 2.8 mg/L (≈ 5.99 µM) | 4.89
